Measurements as given in PubChem BioAssay (NCI).
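Interpolation was linear, between the two tested concentrations surrounding the appropriate level; five concentrations were tested over 48 hours in 96-well plates. GI50 = concentration required for 50% inhibition of growth. At the TGI there is no net growth.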

How the values were obtained:
Experiment in all cases: NCI tumour cell line growth inhibition, 48 h
T-47D breast = tested on: T-47D breast
MDA-MB-231 breast = tested on: MDA-MB-231 breast
SK-MEL-5 melanoma = tested on: SK-MEL-5 melanoma
NCI-H226 lung = tested on: NCI-H226 lung
NCI-H23 lung = tested on: NCI-H23 lung
MALME-3M melanoma = tested on: MALME-3M melanoma
U251 CNS = tested on: U251 CNS
SNB-19 CNS = tested on: SNB-19 CNS
A498 renal = tested on: A498 renal
MDA-MB-435 = tested on: MDA-MB-435
BT-549 breast = tested on: BT-549 breast
SK-MEL-2 melanoma = tested on: SK-MEL-2 melanoma
CAKI-1 renal = tested on: CAKI-1 renal
NCI-H522 lung = tested on: NCI-H522 lung
IGROV1 ovarian = tested on: IGROV1 ovarian
A549 NSCLC = tested on: A549 NSCLC
SK-MEL-28 melanoma = tested on: SK-MEL-28 melanoma
SF-295 CNS = tested on: SF-295 CNS
HOP-92 NSCLC = tested on: HOP-92 NSCLC
SN12C renal = tested on: SN12C renal
SF-539 CNS = tested on: SF-539 CNS
786-0 renal = tested on: 786-0 renal
CCRF-CEM leukemia = tested on: CCRF-CEM leukemia
SF-268 CNS = tested on: SF-268 CNS
OVCAR-8 ovarian = tested on: OVCAR-8 ovarian
SR leukemia = tested on: SR leukemia
KM12 colon = tested on: KM12 colon
M14 melanoma = tested on: M14 melanoma
SK-OV-3 ovarian = tested on: SK-OV-3 ovarian
MCF7 breast = tested on: MCF7 breast
K-562 leukemia = tested on: K-562 leukemia
SW-620 colon = tested on: SW-620 colon
HT29 colon = tested on: HT29 colon
TK-10 renal = tested on: TK-10 renal
EKVX NSCLC = tested on: EKVX NSCLC
ACHN renal = tested on: ACHN renal
HL-60(TB) leukemia = tested on: HL-60(TB) leukemia
HS 578T breast = tested on: HS 578T breast
HCT-15 colon = tested on: HCT-15 colon
COLO 205 colon = tested on: COLO 205 colon
HCC-2998 colon = tested on: HCC-2998 colon
SNB-75 CNS = tested on: SNB-75 CNS
LOX IMVI melanoma = tested on: LOX IMVI melanoma
PC-3 prostate = tested on: PC-3 prostate
OVCAR-5 ovarian = tested on: OVCAR-5 ovarian
DU-145 prostate = tested on: DU-145 prostate
HOP-62 NSCLC = tested on: HOP-62 NSCLC
UACC-257 melanoma = tested on: UACC-257 melanoma
RPMI-8226 leukemia = tested on: RPMI-8226 leukemia
MOLT-4 leukemia = tested on: MOLT-4 leukemia
UACC-62 melanoma = tested on: UACC-62 melanoma

**Q.** What does the source list for `CSc1nn2c(-c3ccc4ccccc4c3)ccnc2c1C#N`?
**A.** GI50 (T-47D breast): 4050 nM; TGI (T-47D breast): > 100000 nM; GI50 (MDA-MB-231 breast): 1110 nM; TGI (MDA-MB-231 breast): 5880 nM; GI50 (SK-MEL-5 melanoma): 693 nM; TGI (SK-MEL-5 melanoma): > 100000 nM; GI50 (NCI-H226 lung): 2810 nM; TGI (NCI-H226 lung): > 100000 nM; GI50 (NCI-H23 lung): 2040 nM; TGI (NCI-H23 lung): > 100000 nM; GI50 (MALME-3M melanoma): 663 nM; TGI (MALME-3M melanoma): 44500 nM; GI50 (U251 CNS): 989 nM; TGI (U251 CNS): > 100000 nM; GI50 (SNB-19 CNS): 1220 nM; TGI (SNB-19 CNS): > 100000 nM; GI50 (A498 renal): 176 nM; TGI (A498 renal): 897 nM; GI50 (MDA-MB-435): 229 nM; TGI (MDA-MB-435): 641 nM; GI50 (BT-549 breast): 2290 nM; TGI (BT-549 breast): > 100000 nM; GI50 (SK-MEL-2 melanoma): 874 nM; TGI (SK-MEL-2 melanoma): > 100000 nM; GI50 (CAKI-1 renal): 550 nM; TGI (CAKI-1 renal): > 100000 nM; GI50 (NCI-H522 lung): 442 nM; TGI (NCI-H522 lung): > 100000 nM; GI50 (IGROV1 ovarian): 763 nM; TGI (IGROV1 ovarian): > 100000 nM; GI50 (A549 NSCLC): 828 nM; TGI (A549 NSCLC): > 100000 nM; GI50 (SK-MEL-28 melanoma): 1160 nM; TGI (SK-MEL-28 melanoma): > 100000 nM; GI50 (SF-295 CNS): 1780 nM; TGI (SF-295 CNS): > 100000 nM; GI50 (HOP-92 NSCLC): 1710 nM; TGI (HOP-92 NSCLC): 6550 nM; GI50 (SN12C renal): 857 nM; TGI (SN12C renal): > 100000 nM; GI50 (SF-539 CNS): 1300 nM; TGI (SF-539 CNS): 64800 nM; GI50 (786-0 renal): 2110 nM; TGI (786-0 renal): > 100000 nM; GI50 (CCRF-CEM leukemia): 7510 nM; TGI (CCRF-CEM leukemia): > 100000 nM; GI50 (SF-268 CNS): 1290 nM; TGI (SF-268 CNS): > 100000 nM; GI50 (OVCAR-8 ovarian): 944 nM; TGI (OVCAR-8 ovarian): > 100000 nM; GI50 (SR leukemia): 343 nM; TGI (SR leukemia): > 100000 nM; GI50 (KM12 colon): 490 nM; TGI (KM12 colon): > 100000 nM; GI50 (M14 melanoma): 390 nM; TGI (M14 melanoma): 27400 nM; GI50 (SK-OV-3 ovarian): 2200 nM; TGI (SK-OV-3 ovarian): > 100000 nM; GI50 (MCF7 breast): 1300 nM; TGI (MCF7 breast): > 100000 nM; GI50 (K-562 leukemia): 306 nM; TGI (K-562 leukemia): > 100000 nM; GI50 (SW-620 colon): 428 nM; TGI (SW-620 colon): > 100000 nM; GI50 (HT29 colon): 454 nM; TGI (HT29 colon): > 100000 nM; GI50 (TK-10 renal): 5090 nM; TGI (TK-10 renal): > 100000 nM; GI50 (EKVX NSCLC): 3040 nM; TGI (EKVX NSCLC): > 100000 nM; GI50 (ACHN renal): 1140 nM; TGI (ACHN renal): > 100000 nM; GI50 (HL-60(TB) leukemia): 668 nM; TGI (HL-60(TB) leukemia): > 100000 nM; GI50 (HS 578T breast): 1050 nM; TGI (HS 578T breast): > 100000 nM; GI50 (HCT-15 colon): 390 nM; TGI (HCT-15 colon): > 100000 nM; GI50 (COLO 205 colon): 727 nM; TGI (COLO 205 colon): > 100000 nM; GI50 (HCC-2998 colon): 6020 nM; TGI (HCC-2998 colon): > 100000 nM; GI50 (SNB-75 CNS): 197 nM; TGI (SNB-75 CNS): 1510 nM; GI50 (LOX IMVI melanoma): 754 nM; TGI (LOX IMVI melanoma): > 100000 nM; GI50 (PC-3 prostate): 2980 nM; TGI (PC-3 prostate): > 100000 nM; GI50 (OVCAR-5 ovarian): 5140 nM; TGI (OVCAR-5 ovarian): > 100000 nM; GI50 (DU-145 prostate): 6990 nM; TGI (DU-145 prostate): > 100000 nM; GI50 (HOP-62 NSCLC): 1090 nM; TGI (HOP-62 NSCLC): > 100000 nM; GI50 (UACC-257 melanoma): 6930 nM; TGI (UACC-257 melanoma): > 100000 nM; GI50 (RPMI-8226 leukemia): 599 nM; TGI (RPMI-8226 leukemia): > 100000 nM; GI50 (MOLT-4 leukemia): 668 nM; TGI (MOLT-4 leukemia): > 100000 nM; GI50 (UACC-62 melanoma): 439 nM; TGI (UACC-62 melanoma): 6510 nM
